Series [1] concerns HBV (HepG2.117 cell line, inducibly HBV producing). The experiment in a line: Anti-HBV activity, intracellular HBV DNA by real-time PCR in HepG2.117 cell line. The class given is cell-based, hepatitis B virus. Conditions: HepG2.117 cells, 3 days of treatment. The essentials: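 HepG2.117 cells (Tet-off, inducible HBV production) were induced to replicate HBV by doxycycline absence, then treated with serially diluted compound for 3 days. Activity was quantified as intracellular HBV DNA by real-time PCR using an HBV-specific primer set and probe.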

Series [2] concerns HepG2 or HepG2.117 cells. Briefly: Cytotoxicity, ATPlite Luminescence Assay. To be noted: 3-days incubation unless marked with *. The class given is cell-based, human. The method, boiled down: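 Cells were exposed to compounds for 3 or 4 days, after which viability was determined by ATP-based luminescence (ATPlite).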
A short description of series [3]: Human liver microsome stability. To be noted: pooled human liver microsomes 0.5 mg/mL, 1 μM compound, NADPH 1 mM, 37° C., 0-60 min. The class given is in vitro ADME. The method, boiled down:
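Single incubations with human liver microsomes started with 1 mM NADPH; samples taken at 0, 5, 10, 20, 40 and 60 min, quenched in acetonitrile (1:3). Cassette LC-MS analysis with internal standard; t½ derived from slope of ln peak-area ratio versus time (k = −gradient).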
In general terms: Microsomes from liver hold many membrane-bound enzymes, among them those of drug oxidation.

Where only a bound is given, the exact number is not on record here.

Usually EC50 stands for the concentration that produces a half-maximal response. Higher therefore signals weaker potency. The term CC50 denotes the concentration at which the toxic effect on the cells reaches its halfway point. As to `CC(c1cc(F)ccn1)N1C[C@@H](C)n2nc3c(c2C1=O)CN(C(=O)c1ccc(Cl)c(Cl)c1)[C@H](C)C3` (single isomer, unassigned) [Compound 32B], the EC50 in series [1] was found to be 0.088 µM. Also, in series [2], the CC50 is more than 50 µM. Further, the “HLM Metabolism t1/2” value in series [3] was 2.23 h.
For `CC(c1ccc(NS(C)(=O)=O)cn1)N1C[C@@H](C)n2nc3c(c2C1=O)CN(C(=O)c1ccc(Cl)c(C(F)(F)F)c1)[C@H](C)C3` (single isomer, unassigned) [Compound 33B, N-(6-((S*)-1-((3R,7R)-2-(4-chloro-3-(trifluoromethyl)benzoyl)-3,7-dimethyl-10-oxo-1,3,4,7,8,10-hexahydropyrido[4′,3′:3,4]pyrazolo[1,5-a]pyrazin-9(2H)-yl)ethyl)pyridin-3-yl)methanesulfonamide] the same measures were 0.043 µM, more than 50 µM and more than 3 h.
Turning to `CC(c1cnc(C(F)(F)F)nc1)N1C[C@@H](C)n2nc3c(c2C1=O)CN(C(=O)c1ccc(Cl)c(Cl)c1)[C@H](C)C3` (single isomer, unassigned) [Compound 34B, (3R,7R)-2-(3,4-dichlorobenzoyl)-3,7-dimethyl-9-((S*)-1-(2-(trifluoromethyl)pyrimidin-5-yl)ethyl)-1,2,3,4,8,9-hexahydropyrido[4′,3′:3,4]pyrazolo[1,5-a]pyrazin-10(7H)-one], the EC50 in series [1] stood at 0.052 µM. The same molecule gave a CC50 in series [2] of 34.9 µM. Also, the “HLM Metabolism t1/2” value in series [3] was more than 3 h.
In series [1], `CC(c1cnc(C(C)(C)O)nc1)N1C[C@@H](C)n2nc3c(c2C1=O)CN(C(=O)c1ccc(Cl)c(C(F)(F)F)c1)[C@H](C)C3` (single isomer, unassigned) [Compound 35B, (3R,7R)-2-(4-chloro-3-(trifluoromethyl)benzoyl)-9-((S*)-1-(2-(2-hydroxypropan-2-yl)pyrimidin-5-yl)ethyl)-3,7-dimethyl-1,2,3,4,8,9-hexahydropyrido[4′,3′:3,4]pyrazolo[1,5-a]pyrazin-10(7H)-one] yielded an EC50 of 0.01 µM. In addition, the CC50 in series [2] was more than 50 µM. Besides, the “HLM Metabolism t1/2” value in series [3] was more than 3 h.
As to `CC(c1cnc(C(C)(C)O)nc1)N1C[C@@H](C)n2nc3c(c2C1=O)CN(C(=O)c1ccc(Cl)c(Cl)c1)[C@H](C)C3` (single isomer, unassigned) [Compound 36B, (3R,7R)-2-(3,4-Dichlorobenzoyl)-9-((S*)-1-(2-(2-hydroxypropan-2-yl)pyrimidin-5-yl)ethyl)-3,7-dimethyl-1,2,3,4,8,9-hexahydropyrido[4′,3′:3,4]pyrazolo[1,5-a]pyrazin-10(7H)-one], it took 0.029 µM to reach a half-maximal effect in series [1] (EC50). The same molecule displayed a CC50 in series [2] of more than 50 µM. Besides, the “HLM Metabolism t1/2” value in series [3] was more than 3 h.
In turn, `CC(c1cnc(NC2CC2)nc1)N1C[C@@H](C)n2nc3c(c2C1=O)CN(C(=O)c1ccc(Cl)c(Cl)c1)[C@H](C)C3` (single isomer, unassigned) [Compound 37B, (3R,7R)-9-((S*)-1-(2-(cyclopropylamino)pyrimidin-5-yl)ethyl)-2-(3,4-dichlorobenzoyl)-3,7-dimethyl-1,2,3,4,8,9-hexahydropyrido[4′,3′:3,4]pyrazolo[1,5-a]pyrazin-10(7H)-one] returned an EC50 in series [1] of 0.041 µM. For the same molecule, in series [2], the CC50 is more than 50 µM. Further, the “HLM Metabolism t1/2” value in series [3] turned out to be 0.892 h.
Regarding `CC(c1cnc(N2CCOC[C@@H]2C)nc1)N1C[C@@H](C)n2nc3c(c2C1=O)CN(C(=O)c1ccc(Cl)c(C(F)(F)F)c1)[C@H](C)C3` (single isomer, unassigned) [Compound 38B, (3R,7R)-2-(4-chloro-3-(trifluoromethyl)benzoyl)-3,7-dimethyl-9-((S*)-1-(2-((S)-3-methylmorpholino)pyrimidin-5-yl)ethyl)-1,2,3,4,8,9-hexahydropyrido[4′,3′:3,4]pyrazolo[1,5-a]pyrazin-10(7H)-one], the EC50 in series [1] was 0.012 µM. In series [2], this molecule had a CC50 of 28.4 µM. Moreover, the “HLM Metabolism t1/2” value in series [3] is 0.642 h.
In turn, `CC(c1ncccn1)N1C[C@@H](C)n2nc3c(c2C1=O)CN(C(=O)c1ccc(Cl)c(Cl)c1)[C@H](C)C3` (single isomer, unassigned) [Compound 39B, (3R,7R)-2-(3,4-dichlorobenzoyl)-3,7-dimethyl-9-((S*)-1-(pyrimidin-2-yl)ethyl)-1,2,3,4,8,9-hexahydropyrido[4′,3′:3,4]pyrazolo[1,5-a]pyrazin-10(7H)-one] gave an EC50 in series [1] of 0.035 µM. In series [2], this molecule displayed a CC50 of more than 25 µM. Besides, in series [3], the “HLM Metabolism t1/2” value is more than 3 h.
For `CC(c1ncc(C(F)(F)F)cn1)N1C[C@@H](C)n2nc3c(c2C1=O)CN(C(=O)c1ccc(Cl)c(Cl)c1)[C@H](C)C3` (single isomer, unassigned) [Compound 40B, (3R,7R)-2-(3,4-dichlorobenzoyl)-3,7-dimethyl-9-((S*)-1-(5-(trifluoromethyl)pyrimidin-2-yl)ethyl)-1,2,3,4,8,9-hexahydropyrido[4′,3′:3,4]pyrazolo[1,5-a]pyrazin-10(7H)-one] the same measures were 0.26 µM, 22.9 µM and more than 3 h.
`CC(c1cnc(C(C)(C)O)cn1)N1C[C@@H](C)n2nc3c(c2C1=O)CN(C(=O)c1ccc(Cl)c(C(F)(F)F)c1)[C@H](C)C3` (single isomer, unassigned) [Compound 41B, (3R,7R)-2-(4-chloro-3-(trifluoromethyl)benzoyl)-9-((S*)-1-(5-(2-hydroxypropan-2-yl)pyrazin-2-yl)ethyl)-3,7-dimethyl-1,2,3,4,8,9-hexahydropyrido[4′,3′:3,4]pyrazolo[1,5-a]pyrazin-10(7H)-one] yielded an EC50 in series [1] of 0.014 µM. Besides, the half-maximal cytotoxic concentration (CC50) in series [2] is more than 50 µM. Besides, the “HLM Metabolism t1/2” value in series [3] stood at 1.65 h.
`CC(c1ccn(CC(F)(F)F)n1)N1C[C@@H](C)n2nc3c(c2C1=O)CN(C(=O)c1ccc(Cl)c(C#N)c1)[C@H](C)C3` (single isomer, unassigned) [Compound 42A, 2-chloro-5-((3R,7R)-3,7-Dimethyl-10-oxo-9-((R*)-1-(1-(2,2,2-trifluoroethyl)-1H-pyrazol-3-yl)ethyl)-1,2,3,4,7,8,9,10-octahydropyrido[4′,3′:3,4]pyrazolo[1,5-a]pyrazine-2-carbonyl)benzonitrile] registered an EC50 in series [1] of 0.12 µM. Also, the CC50 in series [2] is more than 50 µM. The “HLM Metabolism t1/2” value in series [3] was more than 3 h.
As to `Cc1nnc(C(C)N2C[C@@H](C)n3nc4c(c3C2=O)CN(C(=O)c2ccc(Cl)c(Cl)c2)[C@H](C)C4)o1` (single isomer, unassigned) [Compound 43B, (3R,7R)-2-(3,4-dichlorobenzoyl)-3,7-dimethyl-9-((S*)-1-(5-methyl-1,3,4-oxadiazol-2-yl)ethyl)-1,2,3,4,8,9-hexahydropyrido[4′,3′:3,4]pyrazolo[1,5-a]pyrazin-10(7H)-one], in series [1], the EC50 came to 0.065 µM. The same molecule showed a CC50 in series [2] of more than 50 µM. The “HLM Metabolism t1/2” value in series [3] is more than 3 h.
The like results for `CC(c1nnc(C2CC2)o1)N1C[C@@H](C)n2nc3c(c2C1=O)CN(C(=O)c1ccc(Cl)c(Cl)c1)[C@H](C)C3` (single isomer, unassigned) [Compound 44B, (3R,7R)-9-((S*)-1-(5-cyclopropyl-1,3,4-oxadiazol-2-yl)ethyl)-2-(3,4-dichlorobenzoyl)-3,7-dimethyl-1,2,3,4,8,9-hexahydropyrido[4′,3′:3,4]pyrazolo[1,5-a]pyrazin-10(7H)-one] were, in that order, 0.065 µM, more than 50 µM and 2.22 h.
Turning to `CC(c1cc(F)c(=O)n(C2CC2)c1)N1C[C@@H](C)n2nc3c(c2C1=O)CN(C(=O)c1ccc(Cl)c(Cl)c1)[C@H](C)C3` (single isomer, unassigned) [Compound 46B, (3R,7R)-9-((S*)-1-(1-cyclopropyl-5-fluoro-6-oxo-1,6-dihydropyridin-3-yl)ethyl)-2-(3,4-dichlorobenzoyl)-3,7-dimethyl-1,2,3,4,8,9-hexahydropyrido[4′,3′:3,4]pyrazolo[1,5-a]pyrazin-10(7H)-one], a half-maximal effect in series [1] (EC50) was put at 0.031 µM. The same molecule yielded a CC50 in series [2] of more than 50 µM. For the same molecule, the “HLM Metabolism t1/2” value in series [3] is more than 3 h.
Turning to `CC(c1ccn(C(C)C)c(=O)c1)N1C[C@@H](C)n2nc3c(c2C1=O)CN(C(=O)c1ccc(Cl)c(C(F)(F)F)c1)[C@H](C)C3` (single isomer, unassigned) [Compound 47B, (3R,7R)-2-(4-chloro-3-(trifluoromethyl)benzoyl)-9-((S*)-1-(1-isopropyl-2-oxo-1,2-dihydropyridin-4-yl)ethyl)-3,7-dimethyl-1,2,3,4,8,9-hexahydropyrido[4′,3′:3,4]pyrazolo[1,5-a]pyrazin-10(7H)-one], the EC50 in series [1] was 0.016 µM. In series [2], the CC50 was more than 50 µM. Moreover, the “HLM Metabolism t1/2” value in series [3] was found to be 2.4 h.
`CC(C)Oc1cc(C(C)N2C[C@@H](C)n3nc4c(c3C2=O)CN(C(=O)c2ccc(Cl)c(C(F)(F)F)c2)[C@H](C)C4)ccn1` (single isomer, unassigned) [Compound 48B, (3R,7R)-2-(4-chloro-3-(trifluoromethyl)benzoyl)-9-((S*)-1-(2-isopropoxypyridin-4-yl)ethyl)-3,7-dimethyl-1,2,3,4,8,9-hexahydropyrido[4′,3′:3,4]pyrazolo[1,5-a]pyrazin-10(7H)-one] registered an EC50 in series [1] of 0.028 µM. This molecule came in with a cytotoxic concentration (CC50) in series [2] of 11.5 µM. Moreover, in series [3], the “HLM Metabolism t1/2” value was 1.66 h.

Source of the values: patent publication US20240287070A1, “FUSED HETEROCYCLIC DERIVATIVES” (Janssen Sciences Ireland Unlimited Company, priority 2021, published 2024).
